Where two headings read alike, the source gives them in different places.
Tests used:
HPK1 = HPK1 (Homo sapiens, UniProt Q92918); experiment: HPK1 biochemical assay (ADP-GLO Kinase Assay)
Text: IC50 values of any compounds can be determined accordingly over a range of inhibitor concentrations. In addition, the inhibitory effect of the compounds can also be assess using a biological assay, to determine the effect of the compounds on cytokine secretion by T cells following TCR and CD28 stimulation.
Biology Example 1 HPK1 Biochemical Assay
This example used the ADP-GLO™ Kinase Assay to measure the effect of potential HPK1 inhibitor compounds on HPK1 kinase activity.
The ADP-GLO™ Kinase Assay (Promega Corp., Madison, WI) measures ADP formed from a kinase reaction. According to the manufacture, the ADP formed in a kinase assay is first converted into ATP, which is then used to generate light in a luciferase reaction. The luminescence generated correlates with kinase activity. An exemplary experimental setting is described below, though minor adjustments can be made in individual assays.
Serial 3-fold dilution of compounds from 10 μM (top concentration) to 0.508 nM (lowest concentration). Positive control is 10 μM Reference+enzyme+substrate. Negative control is 1% DMSO+enzyme+substrate.
• 1. Buffer Preparation • 40 mM Tris pH7.5; 20 mM MgCl2, 0.1 mg/ml BSA, 50 μM DTT Buffer Stock
Add 20 mL 1M Tris and 10 mL 1M MgCl2 to 470 mL ddH2O to get buffer stock, and stock at RT. • 2. Preparing Fresh 1* Assay Buffer
• 3. Compounds Preparation • 1) The compounds were diluted to 1 mM, by mixing 10 μL of 10 mM respective compound stocks with 90 μL of DMSO. • 2) The compounds were then diluted 3-fold for 10 doses (5 μL to 10 μL dilution) by BRAVO. The top compound conc. was 1 mM (100×), DMSO Conc. was 100%. • 3) Transfer 100 nL of each diluted compound sample to 384-well plate (Corning-4512) by ECHO. • 4) Centrifuge the plate at 1,500 rpm for 1 minute. • 4. Preparation of 2×ATP-MBP Mixture: • 20 μM ATP, 0.2 μg/μL MBP in Kinase Buffer (final concentration: 10 μM ATP, 0.1 MBP)
• 5. Preparation of 2×HPK1 working solution with assay buffer. • HPK1 final concentration was 0.6 ng/μL. […] Incubate at 25° C. for 40 min. • 11. Record luminescence signal on an Envision plate reader (384-CTG). 5. Data Analysis
The percent (%) inhibition at each concentration of compound is calculated based on and relative to the signal in the High and Low control wells contained within each assay plate. […] The concentrations and % inhibition values for tested compounds were plotted and the concentration of compound required for 50% inhibition (IC50) was determined with a Three-parameter logistic dose response equation. The endpoint value (IC50) for the reference peptide/compound was evaluated in each experiment as a quality control measure. If the endpoint value was within 3-fold of the expected value, then the experiment was deemed acceptable.

JAK3 = target: T1, JAK3 (Homo sapiens, UniProt P52333); experiment: JAK3 biochemical assay (ADP-GLO Kinase Assay); conditions: for JAKs/HPK1 IC50 Ratio, B* / JAKs/HPK1 IC50 Ratio, N*: ratio of JAK3 IC50 to HPK1 IC50; for JAKs/HPK1 IC50 Ratio, B*: first testing facility; for JAKs/HPK1 IC50 Ratio, N*: second testing facility
T1 construct: purchased Thermo fisher PV3855
Procedure: Biology Example 4 JAK3 Biochemical Assay
This example used the ADP-GLO™ Kinase Assay to measure the effect of potential HPK1 inhibitor compounds on JAK3 kinase activity. An exemplary experimental setting is described below, though minor adjustments can be made in individual assays.
3. Procedures • 1. Prepare JAK3 kinase buffer • Freshly adding DTT and BSA into Buffer (Final Conc.: 40 mM Tris pH7.5; 20 mM MgCl2, 0.1 mg/ml BSA, 50 μM DTT).
• 2. Compounds Preparation • For tested compounds: compounds were diluted to 1 mM, by mixing 5 μL of 10 mM compound stocks to 45 μL DMSO. The compounds solutions were then serially diluted 3-fold for 10 doses. The top compound concentration was 1 mM (100×), DMSO concentration was 100%. • 50 nL of each of 10 doses of diluted compound were added to 384-well assay plate (Corning #4512) by ECHO. • For positive control, 50 nL of 1 mM reference compound were added to 384-well assay plate (Corning #4512) by ECHO. • For negative control: 50 nL of DMSO was transferred into 384-well assay plate as a negative control. • The assay plate was centrifuged at 1,500 rpm for 1 minute. • 3. Compounds were Transferred by ECHO Following the Layout Below: • Reference and test compounds 1-15: serial 3-fold dilution from 10 μM to 0.508 nM (10 doses); negative control is 0.78 ng JAK3, 4 μM ATP & 0.2 μg/μL poly, 1% DMSO; positive control is the top dose of the reference compound, 0.78 ng JAK3, 0.2 μg/μL Poly(E4Y1), 4 μMATP, 1% DMSO. • 4. Add 2.5 μL/well of 2×JAK3 working solution using pipette (Thermo, 30 μL multi-channel), Centrifuge at 1,500 rpm for 1 minute. • 5. Add 2.5 μL/well of 2×ATP-Poly(E4Y1) working mixture using pipette (Thermo, 30 μL multi-channel), Centrifuge at 1,500 rpm for 1 minute. • 6. Incubate the assay plate at 25° C. for 60 min. • 7. Add 5 μL/well ADP-GLO™ Reagent by BRAVO to stop the kinase reaction and deplete the unconsumed ATP after 1 hour. Centrifuge at 1,500 rpm for 1 minute. Incubate at 25° C. for 40 min. • 8. Add 10 uL of Kinase Detection Reagent by BRAVO to convert ADP to ATP. Centrifuge at 1,500 rpm for 1 minute. Incubate at 25° C. for 40 min. • 9. Record luminescence signal on an Envision plate reader (384-USL). • 10. Process data using XL-fit. Inhibition %=[1-(test well−Negative control)/(positive control−Negative control)]*100%. 5. Data Analysis
The percent (%) inhibition at each concentration of compound is calculated based on and relative to the signal in the Negative and Positive control wells contained within each assay plate. The Negative control wells served as 0% inhibition, and the Positive control wells served as 100% inhibition. The concentrations and % inhibition values for tested compounds are plotted and the concentration of compound required for 50% inhibition (IC50) is determined with a Three-parameter logistic dose response equation. The endpoint value (IC50) for the reference peptide/compound is evaluated in each experiment as a quality control measure. If the endpoint value was within 3-fold of the expected value then the experiment was deemed acceptable.

[1] = B*: testing performed in a first testing facility, read-out: HPK1 IC50 (nM) Relative, B*
[2] = B*: testing performed in a first testing facility, read-out: JAK3 IC50 (nM) Relative, B*
[3] = N*: testing performed in a second testing facility, read-out: HPK1 IC50 (nM) Relative, N*
[4] = N*: testing performed in a second testing facility, read-out: JAK3 IC50 (nM) Relative, N*

T1 sequence (P52333 781-1124 limits assumed): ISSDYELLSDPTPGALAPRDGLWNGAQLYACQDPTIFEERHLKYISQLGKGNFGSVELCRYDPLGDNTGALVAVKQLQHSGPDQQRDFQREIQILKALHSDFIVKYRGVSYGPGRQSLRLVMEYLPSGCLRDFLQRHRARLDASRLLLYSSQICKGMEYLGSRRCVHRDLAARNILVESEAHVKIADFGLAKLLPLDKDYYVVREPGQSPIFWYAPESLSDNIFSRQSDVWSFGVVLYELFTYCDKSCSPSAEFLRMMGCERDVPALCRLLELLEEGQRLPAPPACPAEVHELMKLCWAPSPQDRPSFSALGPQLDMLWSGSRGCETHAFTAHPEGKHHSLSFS
HPK1, sequence (Q92918 whole entry): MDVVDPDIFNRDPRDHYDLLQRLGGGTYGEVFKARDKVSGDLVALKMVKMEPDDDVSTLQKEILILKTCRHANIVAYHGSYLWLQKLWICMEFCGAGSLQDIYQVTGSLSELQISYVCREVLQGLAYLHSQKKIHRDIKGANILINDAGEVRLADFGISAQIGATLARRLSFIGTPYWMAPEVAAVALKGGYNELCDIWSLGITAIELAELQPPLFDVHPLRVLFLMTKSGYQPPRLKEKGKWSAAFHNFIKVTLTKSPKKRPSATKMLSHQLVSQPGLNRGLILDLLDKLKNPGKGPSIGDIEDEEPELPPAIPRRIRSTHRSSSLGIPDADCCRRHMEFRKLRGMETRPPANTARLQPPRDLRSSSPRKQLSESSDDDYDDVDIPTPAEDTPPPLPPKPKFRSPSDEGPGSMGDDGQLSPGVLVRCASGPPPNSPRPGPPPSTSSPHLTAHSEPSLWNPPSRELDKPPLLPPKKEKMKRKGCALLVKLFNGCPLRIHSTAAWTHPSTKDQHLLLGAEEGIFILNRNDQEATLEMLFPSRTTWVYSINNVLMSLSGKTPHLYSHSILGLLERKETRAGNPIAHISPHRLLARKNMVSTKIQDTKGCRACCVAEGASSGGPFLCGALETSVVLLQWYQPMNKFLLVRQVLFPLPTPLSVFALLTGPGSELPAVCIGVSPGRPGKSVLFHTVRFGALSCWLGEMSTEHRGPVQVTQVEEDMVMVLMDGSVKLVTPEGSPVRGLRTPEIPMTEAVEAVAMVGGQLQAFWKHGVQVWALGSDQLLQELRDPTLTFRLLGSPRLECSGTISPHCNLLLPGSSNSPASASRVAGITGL

Row | Structure (SMILES) | IC50 (HPK1; [1]) | IC50 (JAK3; [2]) | JAKs/HPK1 IC50 Ratio, B* (JAK3) | IC50 (HPK1; [3]) | IC50 (JAK3; [4]) | JAKs/HPK1 IC50 Ratio, N* (JAK3)
1 | CCc1c[nH]c2ncc(-c3ccc(C(N)=O)c(P(C)(C)=O)c3)cc12 [Example 67, 2-(Dimethylphosphoryl)-4-(3-ethyl-1H-pyrrolo[2,3-b]pyridin-5-yl)benzamide] | 100 to 500 nM | > 1000 nM | 10 |  |  | 
2 | CCc1c[nH]c2ncc(-c3cc(NC(C)=O)cc(P(C)(C)=O)c3)cc12 [Example 68, N-(3-(dimethylphosphoryl)-5-(3-ethyl-1H-pyrrolo[2,3-b]pyridin-5-yl)phenyl)acetamide] | 500 to 1000 nM | > 1000 nM | 2 |  |  | 
3 | CCc1c(Cl)[nH]c2ncc(-c3ccc(N)c(P(C)(C)=O)c3)cc12 [Example 69, (2-Amino-5-(2-chloro-3-ethyl-1H-pyrrolo[2,3-b]pyridin-5-yl)phenyl)dimethylphosphine oxide] | ≤ 100 nM |  |  | ≤ 100 nM | 500 to 1000 nM | 52
4 | CCc1c[nH]c2ncc(-c3ccc(N)c(P(C)(C)=O)c3)cc12 [Example 70, (2-Amino-5-(3-ethyl-1H-pyrrolo[2,3-b]pyridin-5-yl)phenyl)dimethylphosphine oxide] | ≤ 100 nM | 500 to 1000 nM | 70 | ≤ 100 nM | 500 to 1000 nM | 50
5 | CCc1c[nH]c2ncc(-c3ccc(C(=O)OC)c(P(C)(C)=O)c3)cc12 [Example 72, Methyl 2-(dimethylphosphoryl)-4-(3-ethyl-1H-pyrrolo[2,3-b]pyridin-5-yl)benzoate] | 100 to 500 nM | > 1000 nM | 11 |  |  | 
6 | CCc1c[nH]c2ncc(-c3ccc(CO)c(P(C)(C)=O)c3)cc12 [Example 73, (5-(3-Ethyl-1H-pyrrolo[2,3-b]pyridin-5-yl)-2-(hydroxymethyl)phenyl)dimethylphosphine oxide] | 100 to 500 nM | 500 to 1000 nM | 5 |  |  | 
7 | CCc1c[nH]c2ncc(-c3ccc(CF)c(P(C)(C)=O)c3)cc12 [Example 74, (5-(3-Ethyl-1H-pyrrolo[2,3-b]pyridin-5-yl)-2-(fluoromethyl)phenyl)dimethylphosphine oxide] | 100 to 500 nM | > 1000 nM | 19 |  |  | 
8 | CCc1c[nH]c2ncc(-c3ccc(N)c(P(C)(C)=O)n3)cc12 [Example 75, (3-Amino-6-(3-ethyl-1H-pyrrolo[2,3-b]pyridin-5-yl)pyridin-2-yl)dimethylphosphine oxide] | ≤ 100 nM | > 1000 nM | 59 |  |  | 
9 | CCc1c[nH]c2ncc(-c3ccc(NC4COC4)c(P(C)(C)=O)c3)cc12 [Example 76, (5-(3-Ethyl-1H-pyrrolo[2,3-b]pyridin-5-yl)-2-(oxetan-3-ylamino)phenyl)dimethylphosphine oxide] | 500 to 1000 nM | > 1000 nM | 4 |  |  | 
10 | CC(C)c1c[nH]c2ncc(-c3ccc(N)c(P(C)(C)=O)c3)cc12 [Example 77, (2-Amino-5-(3-isopropyl-1H-pyrrolo[2,3-b]pyridin-5-yl)phenyl)dimethylphosphine oxide] | ≤ 100 nM | > 1000 nM | 76 |  |  | 
11 | CCc1c[nH]c2ncc(-c3ccc(C(F)(F)F)c(P(C)(C)=O)c3)cc12 [Example 78, (5-(3-Ethyl-1H-pyrrolo[2,3-b]pyridin-5-yl)-2-(trifluoromethyl)phenyl)dimethylphosphine oxide] | 500 to 1000 nM | > 1000 nM | >15 |  |  | 
12 | COc1cc2c(cc1Nc1ncc(Cl)c(-n3cc(S(C)(=O)=O)c4ccccc43)n1)CN(C)CC2 [Example 80, N-(5-chloro-4-(3-(methylsulfonyl)-1H-indol-1-yl)pyrimidin-2-yl)-6-methoxy-2-methyl-1,2,3,4-tetrahydroisoquinolin-7-amine] | ≤ 100 nM | > 1000 nM | >1172 |  |  | 
13 | COc1cc2c(cc1Nc1ncc(Cl)c(-n3cc(CS(C)(=O)=O)c4ccccc43)n1)CN(C)CC2 [Example 82, N-(5-chloro-4-(3-((methylsulfonyl)methyl)-1H-indol-1-yl)pyrimidin-2-yl)-6-methoxy-2-methyl-1,2,3,4-tetrahydroisoquinolin-7-amine] | ≤ 100 nM | > 1000 nM | 800 |  |  | 
14 | COc1cc2c(cc1Nc1ncc(Cl)c(N3CCc4cc(Br)ccc43)n1)CN(C)CC2 [Example 85, N-(4-(5-bromoindolin-1-yl)-5-chloropyrimidin-2-yl)-6-methoxy-2-methyl-1,2,3,4-tetrahydroisoquinolin-7-amine] | ≤ 100 nM | > 1000 nM | 178 |  |  | 
15 | COc1cc2c(cc1Nc1ncc(Cl)c(N3CCc4c(OC)cccc43)n1)CN(C)CC2 [Example 89, N-(5-chloro-4-(4-methoxyindolin-1-yl)pyrimidin-2-yl)-6-methoxy-2-methyl-1,2,3,4-tetrahydroisoquinolin-7-amine] | ≤ 100 nM | > 1000 nM | 944 |  |  | 
16 | COc1cc2c(cc1Nc1ncc(Cl)c(-n3cc(NS(C)(=O)=O)c4ccccc43)n1)CN(C)CC2 [Example 94, N-(1-(5-chloro-2-((6-methoxy-2-methyl-1,2,3,4-tetrahydroisoquinolin-7-yl)amino)pyrimidin-4-yl)-1H-indol-3-yl)methanesulfonamide] | ≤ 100 nM | > 1000 nM | 449 |  |  | 
